# Data reported in patent EP4349409A1, “COMPOUNDS FOR THE MANAGEMENT OF CELL STEMNESS AND INVASION IN CANCER AND RELATED DISEASES” (Instituto Biomar S.A., priority 2022, dated 2024).
# What was measured:
# G144 cells = test: Annexin V / propidium iodide apoptosis flow cytometry in G144 cells; format: cell-based, human; settings: 48 h
# Protocol: For apoptosis induction analysis, the cells were treated with increasing amounts of BMT9 (4.5 µM and 9 µM) and collected 48 h after treatment. Anexin V and propidium iodide staining was performed using the FITC Annexin V Apoptosis Detection Kit I (BD Biosciences), following the manufacturer's instructions. Flow cytometry was performed with the "MACSQuantify Analyzer" (Miltenyi Biotec) and data were analyzed with "MACSQuantify" software (Miltenyi Biotec) (Figure 7A).
# CD133 = CD133 stemness marker flow cytometry in G144 cells; format: cell-based, human; settings: G144, 48 hours; BMT9 4.5-9 µM, TMZ 500 µM, BCNU 250 µM
# Protocol: Next, we asked if BMT9 treatment at IC50 could specifically affect the stemness of GNSC. To address this point, cells were seeded and treated 24 h later with BMT9 (4.5-9 µM), TMZ (500 µM) or BCNU (250 µM). After 48 hours of treatment, cells were collected and stained with a CD133 (stemness marker) antibody (AC133, Milyenty Biotec) or the corresponding Ig-isotype control. Flow cytometric analysis were performed with the previously mentioned equipment.
# U373 = test: MTT-based cytotoxicity assay, U373; format: cell-based; settings: Homo sapiens, U373 MG, 72 h
# Protocol: (§1) A dose-response analysis of BMT9 (concentrations ranging from 4.5 µM-18 µM), BCNU (from 150 µM-500 µM) and TMZ (350 µM-700 µM) was performed in two conventional glioblastoma cell lines (T98G, U373) and the GNS cell line G144 by MTT-based cytotoxicity assays (Figure 5A-D). Cells were seeded on p96-well plates and treated with the different compounds for 72 h. Then, the MTT reagent (3-(4,5-Dimethyl-2-thiazolyl)-2,5-diphenyl-2H-tetrazolium bromide diluted in PBS to a concentration of 1mg/ml), was added to each well to a final concentration of 0.33mg/ml, and incubated for 3 h at 37°C. After that, the media was removed, and formazan crystals were solubilized with DMSO. Absorbance was measured at 560 nm using a "Synergy HT" plate reader (Biotek). In the graphs, the Y axis represents the percentage of cell viability relative to non-treated cells. The IC50, when reached are marked by a rectangle. DMSO treatment had no effect on cell viability.
# T98G = test: MTT-based cytotoxicity assay, T98G; format: cell-based; settings: Homo sapiens, 72 h
# Protocol: as §1
# G144 R700 = test: MTT assay, TMZ-resistant clone G144 R700; format: cell-based; settings: Homo sapiens, 72 hours
# Description: While the first line therapy of gliomas has proven its effectiveness and improved clinical outcomes, acquired chemoresistance to alkylating agents has been identified as a major cause of treatment failure (Sarkaria et al., 2008). In a murine model of GB, long-term treatment with subtoxic TMZ doses enriched the side population of cancer stem cells, increasing the tumor aggressiveness (Bleau et al., 2009). Thus, we generated TMZ-resistant G144-clones that were selected upon treatment with TMZ either at 500 µM or 700 µM for several months (R500 and R700, respectively). The obtained clones maintained CD133 stem marker expression (Figure 9A). We then analyzed BMT9 dose-dependent effect on cell viability, by MTT assay, comparing the resistant clones to parental cells.
# [1] = test system: p73 transcripts originated from the P1 promoter (TAp73, ΔEx2p73, ΔEx2/3p73); test: qRT-PCR of p73 transcripts from the P1 promoter in U373 cells; format: cell-based, human; settings: U373, same conditions as screening, 18S control
# Protocol: Expression levels of TAp73 (Figure 2C), ΔEx2p73 (Figure 2D) and ΔEx2/3p73 (Figure 2E) were determined by qRT-qPCR using 18S ribosomal RNA as housekeeping control, and all the expression values were normalized to TAp73 expression in non-treated cells (NT). […] The amino-truncated isoforms that are tumor-specific are vigorously expressed in advanced stages across a variety of highly aggressive human cancers (Knoll et al., 2011; Steder et al., 2013; George et al., 2015; Meier et al., 2016) and promote tumor initiation (Tannapfel et al., 2008) and cancer progression (Engelmann et al., 2015). Moreover, there is a somatic genomic rearrangement of TP73 that generates an oncogenic Ex2/3p73 in small cell lung cancer (George et al., 2015). BMT9 represses the activity of the P1-TP73 promoter, therefore it would be expected to downregulate the expression of any of the isoforms generated from this promoter in a given cell.
# TAp73 = test: Western blot of endogenous TAp73 protein in U373 and T98G glioblastoma cell lines; format: cell-based, human; settings: 72 h, BMT9 9 and 18 µM, TMZ 350 µM, BCNU 150 µM
# Protocol: Next, we compared the effect of BMT9 and TMZ or BCNU treatments on endogenous TAp73 protein levels in U373 and T98G glioblastoma cell lines (Figure 2F and G). Cells were treated for 72 h either with BMT9 at 9 and 18 µM, or with TMZ and BCNU at the standard concentrations referred in other articles (350 µM and 150 µM, respectively). Protein extracts were obtained and analyzed by Western blot using a TAp73 specific antibody and GAPDH as a loading control. Densitometric quantification of the obtained blots are represented in Figure 2F and G (Y axis, ratio of TAp73/GAPDH band intensity and X axis, indicated treatments).
# G144-GNSC cells = test: Transcriptome comparison (DESeq2) of G144-GNSC cells after treatment; format: cell-based, human; settings: DESeq2, p-adj<0.01, treated vs non-treated G144-GNSC
# Description: Finally, to elucidate the molecular basis of BMT9 effect on the stemness potential of the GNSCs, we compared the transcriptome of non-treated G144-GNSC cells with those after BMT9 treatment. The DESeq2 analysis identified 6163 differentially expressed genes (DEGs) with a p-adj<0.01. […] Among the found DEGs we found GSC markers like PROM1(CD133), LGR5, or SOX1 and SOX4, as well as key regulators involved in maintenance of the cancer cell stemness state like SOX9 (Wang et al., 2018)(Aldaz et al., 2020), CDC20 (Gujar et al., 2016) or AURKA, known to govern self-renewal capacity in glioma-initiating cells via stabilization/activation of β-catenin/Wnt signaling (Xia et al., 2013) and proposed, together with CCNA2, and TPX2, as ideal drug targets in GBM (Du et al., 2020). Table 3. Correlation of GNSCs transcriptomic profiles after BMT9 treatment with published gene signatures of stemness.
compound,measurement,setting,value
C=C1C2CCC(C)(C3COc4c(C)c(OC)c5c(c4C3O)C(O)OC5=O)C1CCC2(C)C (stereo not shown) [BMT9],apoptosis induction,"G144 cells; G144, 4.5 µM (IC50 dosage)",moderate levels of apoptosis
same,apoptosis induction,"G144 cells; G144, 9 µM",strongly induced cell death
same,CD133 expression levels (Mean Fluorescence Intensity),CD133,significantly reduced
same,percentage of CD133 positive cells,CD133,significantly reduced
same,IC50,U373,18 µM
same,IC50,T98G,> 9 µM
same,IC50,G144 R700,3.37 to 4.5 µM
same,"expression levels of TAp73, ΔEx2p73 and ΔEx2/3p73",[1],reduced them all
same,endogenous TAp73 protein levels (TAp73/GAPDH),TAp73,efficiently reduced endogenous TAp73 expression
same,differentially expressed genes (DEGs),G144-GNSC cells,6163
